# Patent US10143681B2, “Factor XIa inhibitors” (MERCK SHARP & DOHME CORP., priority 2016, dated 2018)
# How the values were obtained:
# [1] = molecular target: Human plasma kallikrein (Homo sapiens (Human), UniProt P03952); assay: Kallikrein Assay; type: biochemical; conditions: purified Human plasma kallikrein 0.5 nM, substrate Acetyl-K-P-R-AFC; read-out: P. KLK IC50
# Method in brief: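 Purified human plasma kallikrein (0.5 nM final) with Acetyl-K-P-R-AFC substrate ([…]) in pH 7.4 HEPES/NaCl/CaCl2/PEG buffer, room temperature or 37 °C; fluorescence rise read at 405/510 nm under linear conditions after enzyme–inhibitor equilibration. IC50 from four-parameter logistic fit; Ki via Cheng–Prusoff.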
# [2] = Rat Pharmacokinetic Screening IV/PO; type: in vivo; conditions: male; for clearance: plasma clearance, IV administration; for MRT / bioavailability: plasma; for MRT: mean residence time; for bioavailability: oral bioavailability, oral vs. IV dosing
# Protocol: Plasma pharmacokinetic parameters for clearance (Cl), volume of distribution, mean residence time (MRT) and oral bioavailability (% F) were determined in rats from oral administration and IV administration studies. 4 male rats, typically weighing 225-260 gram, were fasted overnight prior to dosing. Compounds were prepared for oral and IV dosing by addition to a vehicle, depending on the dose used. For a typical preparation, 1 mg per mL (IV) or 1.5 mg per mL (oral) of test compound was added to vehicle comprised of 20% dimethyl sulfoxide (DMSO), 60% polyethylene glycol 400 (PEG400) and 20% water. IV formulation was administered to 2 rats via pre-cannulated jugular vein, and oral dosing was administered to 2 rats via oral gavage. Blood was collected by pre-cannulated artery, typically at predose, 2, 8, 15, 30 min, 1, 2, 4, 6, and 8 hr postdose for IV, and at predose, 15, 30 min, 1, 2, 4, 6, 8 hr for oral dosing. Samples were collected in K2EDTA tubes, stored on ice, and centrifuged. Plasma was transferred to a micro titer plate and stored at −70° C. until analysis. Plasma samples were extracted using protein precipitation and analyzed by liquid chromatography separation followed by mass spec detection (LC-MS/MS), using a standard curve for each compound. Plasma pharmacokinetic parameters were calculated for IV and oral dosing data by non-compartmental methods. Oral bioavailability was determined as the ratio of the dose-normalized plasma area under the curve (AUC) following oral dosing vs. IV dosing.
# [3] = molecular target: human Factor XIa (Homo sapiens (Human), UniProt P03951); assay: Factor XIa Assay; type: biochemical; conditions: human Factor XIa 0.04 nM, 30 min pre-incubation at 25° C., substrate GPR-AFC; read-out: FXIa IC50
# Method in brief: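 IC50 values were obtained from four-parameter log(inhibitor)-response fits of % inhibition, then converted to Ki using Cheng-Prusoff. GPR-AFC hydrolysis was read at 400/505 nm after 60 min at 25 °C.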
# [4] = test system: Human plasma (intrinsic coagulation cascade); assay: Activated Partial Thromboplastin Time (aPTT) Assay; conditions: concentration that causes a 50% (1.5×) increase of clot time over vehicle
# Method in brief: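 Inhibitors spiked into pooled citrated normal-donor human plasma (aPTT 28-40 seconds), run on automated coagulation analyzer: ellagic acid activation of Factor XII, then clot time after recalcification. Reported as concentration giving 50% (1.5×) prolongation over vehicle clot time.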
# human Factor XIa, sequence (P03951 388-625): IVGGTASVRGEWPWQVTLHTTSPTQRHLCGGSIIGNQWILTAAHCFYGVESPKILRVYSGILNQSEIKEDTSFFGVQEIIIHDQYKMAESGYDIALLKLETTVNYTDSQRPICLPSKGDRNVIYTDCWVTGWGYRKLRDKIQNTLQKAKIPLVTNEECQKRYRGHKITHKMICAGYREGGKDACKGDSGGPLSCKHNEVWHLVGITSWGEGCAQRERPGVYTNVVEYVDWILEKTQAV
# human Factor XIa, sequence (P03951 19-387 partner): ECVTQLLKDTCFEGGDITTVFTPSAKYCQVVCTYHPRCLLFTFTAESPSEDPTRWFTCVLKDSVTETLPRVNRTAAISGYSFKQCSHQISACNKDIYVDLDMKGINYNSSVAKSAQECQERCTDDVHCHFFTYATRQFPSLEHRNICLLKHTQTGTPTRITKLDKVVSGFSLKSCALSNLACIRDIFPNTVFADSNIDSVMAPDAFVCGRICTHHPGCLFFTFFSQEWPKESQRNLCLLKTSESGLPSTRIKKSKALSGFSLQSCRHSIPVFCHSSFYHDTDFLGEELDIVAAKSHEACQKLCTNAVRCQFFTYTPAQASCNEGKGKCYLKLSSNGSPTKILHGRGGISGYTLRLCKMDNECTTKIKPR
# Human plasma kallikrein, sequence (P03952 391-638): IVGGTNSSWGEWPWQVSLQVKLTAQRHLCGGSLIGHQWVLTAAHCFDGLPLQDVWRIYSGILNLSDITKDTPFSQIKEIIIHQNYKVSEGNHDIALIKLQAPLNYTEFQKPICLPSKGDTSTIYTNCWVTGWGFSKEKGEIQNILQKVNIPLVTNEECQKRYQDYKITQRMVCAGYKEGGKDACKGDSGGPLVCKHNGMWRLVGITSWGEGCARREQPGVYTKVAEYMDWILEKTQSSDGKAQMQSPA
# Human plasma kallikrein, sequence (P03952 20-390 partner): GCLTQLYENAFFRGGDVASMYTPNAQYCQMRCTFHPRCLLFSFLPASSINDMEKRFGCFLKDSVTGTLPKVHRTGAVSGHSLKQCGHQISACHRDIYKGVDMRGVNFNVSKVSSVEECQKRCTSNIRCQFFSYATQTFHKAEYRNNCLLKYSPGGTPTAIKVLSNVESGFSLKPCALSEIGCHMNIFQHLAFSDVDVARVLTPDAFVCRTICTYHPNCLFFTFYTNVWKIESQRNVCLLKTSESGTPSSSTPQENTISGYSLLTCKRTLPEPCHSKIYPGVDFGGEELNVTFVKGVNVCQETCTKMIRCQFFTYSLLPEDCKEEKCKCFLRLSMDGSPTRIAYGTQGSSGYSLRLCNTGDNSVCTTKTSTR
Compound,IC50 [1] [nM],clearance [2] [mL/min/kg],MRT [2] [h],bioavailability [2] [%],IC50 [3] [nM],aPTT (1.5x) [4] [µM]
"O=C(O)c1ccc(NC(=O)[C@H](CC2CC2)c2ccc(-c3c(C(F)F)ccc(Cl)c3F)c[n+]2[O-])cc1 (mixture of isomers) [Example 23, (S)- and (R)-2-(1-((4-carboxyphenyl)amino)-3-cyclopropyl-1-oxopropan-2-yl)-5-(3-chloro-6-(difluoromethyl)-2-fluorophenyl)pyridine 1-oxide]",22,1.9,2.9,89,0.9,
"C[C@H]1C[C@@H]1C[C@@H](C(=O)Nc1ccc(C(=O)O)cc1)c1ccc(-c2c(OC(F)F)ccc(Cl)c2F)c[n+]1[O-] (single isomer, unassigned) [Example 55]",,4.3,2.6,63,0.38,0.53
"O=C(O)c1ccc(NC(=O)[C@H](CC2CCC2)c2ccc(-c3c(C(F)F)ccc(Cl)c3F)c[n+]2[O-])cc1 (mixture of isomers) [Example 4, (S)- and (R)-2-(1-((4-Carboxyphenyl)amino)-3-cyclobutyl-1-oxopropan-2-yl)-5-(3-chloro-6-(difluoromethyl)-2-fluorophenyl)pyridine 1-oxide]",4.7,5.1,2.5,34,0.36,
"O=C(O)c1ccc(NC(=O)[C@H](CC2CC2)c2ccc(-c3c(OC(F)F)ccc(Cl)c3F)c[n+]2[O-])cc1 (single isomer, unassigned) [Example 2]",79,5,2.5,56,,1.16
"O=C(O)c1ccc(NC(=O)C(CC2CC2(F)F)c2ccc(-c3c(C(F)F)ccc(Cl)c3F)c[n+]2[O-])cc1 (single isomer, unassigned) [Example 76, 2-(1-((4-carboxyphenyl)amino)-3-(2,2-difluorocyclopropyl)-1-oxopropan-2-yl)-5-(3-chloro-6-(difluoromethyl)-2-fluorophenyl)pyridine 1-oxide]",14.5,12.1,2.3,70,,0.72
"O=C(O)c1ccc(NC(=O)C(CC2CC2)c2ccc(-c3c(C(F)(F)F)ccc(Cl)c3F)c[n+]2[O-])cc1 (single isomer, unassigned) [Example 27, (R)- or (S)-2-(1-((4-carboxyphenyl)amino)-3-cyclopropyl-1-oxopropan-2-yl)-5-(3-chloro-2-fluoro-6-(trifluoromethyl)phenyl)pyridine 1-oxide]",162,,,,2.8,2.68
"O=C(O)c1ccc(NC(=O)C(CC2CC(F)C2)c2ccc(-c3c(C(F)F)ccc(Cl)c3F)c[n+]2[O-])cc1 (single isomer, unassigned) [Example 81, 2-(1-((4-carboxyphenyl)amino)-3-(3-fluorocyclobutyl)-1-oxopropan-2-yl)-5-(3-chloro-6-(difluoromethyl)-2-fluorophenyl)pyridine-1-oxide]",8.4,,,,1.2,0.58
"C[C@]1(O)CC[C@@H](CC(C(=O)Nc2ccc(C(=O)O)cc2)c2ccc(-c3c(C(F)F)ccc(Cl)c3F)c[n+]2[O-])CC1 (single isomer, unassigned) [Example 45, 2-(1-((4-carboxyphenyl)amino)-3-((1s,4s)-4-hydroxy-4-methylcyclohexyl)-1-oxopropan-2-yl)-5-(3-chloro-6-(difluoromethyl)-2-fluorophenyl)pyridine 1-oxide]",12,,,,2.7,1.16
"O=C(O)c1ccc(NC(=O)C(C[C@H]2CC[C@H](O)CC2)c2ccc(-c3c(C(F)F)ccc(Cl)c3F)c[n+]2[O-])cc1 (single isomer, unassigned) [Example 37, (R)- or (S)-2-(1-((4-carboxyphenyl)amino)-3-((1r,4r)-4-hydroxycyclohexyl)-1-oxopropan-2-yl)-5-(3-chloro-6-(difluoromethyl)-2-fluorophenyl)pyridine 1-oxide]",5.7,,,,0.33,0.4
"O=C(O)c1ccc(NC(=O)C(CC2CC2)c2ccc(-c3cc(Cl)ccc3C(F)F)c[n+]2[O-])cc1 (single isomer, unassigned) [Example 29, (R)- or (S)-2-(1-((4-carboxyphenyl)amino)-3-cyclopropyl-1-oxopropan-2-yl)-5-(5-chloro-2-(difluoromethyl)phenyl)pyridine 1-oxide]",84,,,,4.3,2.07
